This is an account of results in the NIST ThermoML archive (doi:10.1021/je049540s).

A short description of series [1]: xn = mol fraction of the nth substance listed. As to conditions: 308.15 K, 101.3 kPa, Liquid.
Series [2] is described as follows: activity coefficient (dimensionless); of the first substance listed, at infinite dilution; xn = mol fraction of the nth substance listed. The following applies: 101.3 kPa, Liquid, Differential ebulliometry, x1 = 0.

± gives the expanded uncertainty stated by the source.

Regarding `CCCCCCCCC` [nonane] + Cc1cccc(O)c1, in series [1] (x2 = 0), the mass density is 707.41 ± 0.38 kg/m3.
Regarding `CCCCCCCCCCC` [undecane] + Cc1ccccc1O, the mass density in series [1] (x2 = 0) came out at 729.13 ± 0.36 kg/m3; in series [1] (x2 = 0.0367) it was 734.21 ± 0.35 kg/m3; in series [1] (x2 = 0.0684), 738.92 ± 0.35 kg/m3; in series [1] (x2 = 0.0746), 739.92 ± 0.35 kg/m3; in series [1] (x2 = 0.1306) it was 748.8 ± 0.35 kg/m3; in series [1] (x2 = 0.2094) it was 762.7 ± 0.34 kg/m3. Besides, the mass density came out at 776.41 ± 0.34 kg/m3 in series [1] (x2 = 0.2809); 794.01 ± 0.34 kg/m3 in series [1] (x2 = 0.3636); 820.79 ± 0.35 kg/m3 in series [1] (x2 = 0.4749); 835.93 ± 0.36 kg/m3 in series [1] (x2 = 0.5311); 855.95 ± 0.36 kg/m3 in series [1] (x2 = 0.5989); 875.61 ± 0.37 kg/m3 in series [1] (x2 = 0.6593). In addition, the mass density was found to be 899.41 ± 0.38 kg/m3 in series [1] (x2 = 0.7261), 931.92 ± 0.39 kg/m3 in series [1] (x2 = 0.8065), 959.18 ± 0.41 kg/m3 in series [1] (x2 = 0.8662) and 1001.43 ± 0.45 kg/m3 in series [1] (x2 = 0.9476).
Turning to `CCCCCCCCC` [nonane] + Cc1ccccc1O, in series [1] (x2 = 0), the mass density is on record as 707.41 ± 0.38 kg/m3.
Same read-out and setting: the figure for `CCCCCCCCCCC` [undecane] + Cc1cccc(O)c1 is 729.13 ± 0.36 kg/m3.
Turning to `Cc1cccc(O)c1` [3-methylphenol] + CCCCCCCCCC, the activity coefficient is 7.79 ± 1.1 in series [2] (373.15 K), 5.37 ± 0.75 in series [2] (403.15 K) and 4.26 ± 0.6 in series [2] (433.15 K).
Consider `Cc1cccc(O)c1` [3-methylphenol] + CCCCCCCCCCCC, for which the mass density is 756.67 ± 0.34 kg/m3 in series [1] (x1 = 0.1325); 767.97 ± 0.33 kg/m3 in series [1] (x1 = 0.2055); 784.51 ± 0.32 kg/m3 in series [1] (x1 = 0.3009); 804.35 ± 0.31 kg/m3 in series [1] (x1 = 0.4009); 883.71 ± 0.23 kg/m3 in series [1] (x1 = 0.6976); 921.29 ± 0.2 kg/m3 in series [1] (x1 = 0.7987). For the same compound, the mass density in series [1] (x1 = 0.895) is reported as 963.9 ± 0.15 kg/m3; in series [1] (x1 = 1) it was 1022.02 ± 0.13 kg/m3.
Consider `CCCCCCCCCC` [decane] + Cc1ccccc1O, for which, in series [1] (x2 = 0), the mass density is on record as 720.24 ± 0.42 kg/m3.
The same measure, in the same setting: to `CCCCCCCCCCCC` [dodecane] + Cc1cccc(O)c1 belongs 738.63 ± 0.36 kg/m3.

In general, mass density refers to the mass of a sample divided by its volume.
